Results on 2 compounds are retold here after article PMC2949700, “Identification of the full set of Listeria monocytogenes penicillin-binding proteins and characterization of PBPD2 (Lmo2812)” (BMC Microbiology, 2010).

Assay [1] has as its target T1, purified recombinant Lmo2812 (PBPD2) (Listeria monocytogenes, UniProt Q8Y3M3). In words: Fluorescent antibiotic binding assay, purified recombinant protein. The procedure: The purified protein was incubated with different concentrations of Boc-FL (0.25, 0.5, 2.5, 5 and 10 μM). […] Lmo2812 was the major band on gels, with a slower migrating minor band thought to represent a dimeric form (Figure 2).
Figure 2 Purified recombinant L. monocytogenes Lmo2812 (PBPD2) identified with Boc-FL. Samples of purified recombinant Lmo2812 (10 μg) were labeled with Boc-FL at concentrations of 0 (1), 0.25 (2), 0.5 (3), 2.5 (4), 5 (5) and 10 μM (6). Labeled bands were detected directly on the gel, quantified and their molecular mass estimated. The affinity of the bands for Boc-FL (Kd50) was estimated from their fluorescence as a function of the concentration of Boc-FL. The names of the bands are indicated on the right, and the positions of the molecular weight markers are shown on the left.
The β-lactam binding capacity of Lmo2812 was evaluated with three different fluorescent antibiotics: Boc-FL, Boc-650 and Amp-430.
Total whole cell proteins or purified recombinant protein resuspended in 50 mM NaPi buffer, pH 7.0 were labeled by incubation at 37°C for 30 min with different concentrations of Boc-FL (Molecular Probes), Boc-650 (Molecular Probes) or Amp-430 (prepared in the laboratory by coupling ampicillin to Alexa-430), and then separated on a 10% acrylamide, 3.3% cross-linkage SDS-PAGE gel. To avoid degradation of the fluorescent β-lactam antibiotics by β-lactamases, samples were incubated at 37°C with clavulanic acid at a final concentration of 10 μg/ml or EDTA at a final concentration of 10 mM for 30 min before labeling, where appropriate. Competition experiments were carried out by preincubation of the samples with ampicillin (100 μg/ml) for 30 min at 37°C, before adding the fluorescent antibiotic. The samples were then further incubated for 30 min at 37°C. PBPs were visualized directly on the polyacryloamide gel by fluorescence using a Typhoon 9410 imager (Amersham Biosciences) with excitation wavelengths of 588, 633 or 457 nm and emission filters 520BP40, 670BP30 or 555BP20 for Boc-FL, Boc-650 and Amp-430, respectively. […]

Assay [2] concerns the target T2, PBPA2 (PBP4) (Listeria monocytogenes, UniProt Q8Y547). The experiment in a line: Fluorescent antibiotic binding assay, whole cells. The conditions noted are these: read-out: Boc-FL Kd50, 30 min at 37°C, estimated from band fluorescence as a function of Boc-FL concentration. The procedure: (§1) PBPs form a covalent complex with β-lactam antibiotics. When fluorescent β-lactams are employed, these proteins can be visualized immediately following SDS-PAGE [17]. Total protein from whole cells or a cell wall extract of L. monocytogenes EGD were incubated with different concentrations of Boc-FL, Bocillin-650 (Boc-650) or Ampicillin-Alexa430 (Amp-430) for 30 min at 37°C. The highest affinity binding was obtained with Boc-FL and bands identified using this compound in the whole cell assay are shown in Figure 1. PBPs A1, B2, B1, A2, B3, D1, C1 and C2 were also identified with Boc-650 and Amp-430 (data not shown). Two types of non-specific band were also observed (lane 1, 0 μM Boc-FL) and they represent the natural intrinsic fluorescence of other proteins in the cell extract. However, the bands that are absent in lane 8 (ampicillin 100 μg/ml, 50 μM Boc-FL) compared with lane 7 (50 μM Boc-FL) represent specific PBPs. Those bands that completely disappeared (PBPB1, PBPD1), partially disappeared (PBPA1, PBPB2, PBPA2 and PBPB3) or remained present (PBPC1 and PBPC2) reflect total, partial and no binding of ampicillin, respectively. The results of an experiment examining saturation with 50 μM Boc-FL, the binding capacity of each PBP for Boc-FL and the affinity of the PBPs for ampicillin (Amp) are presented in Table 2. These assays involved incubation of whole cell with ampicillin followed by a similar incubation with Boc-FL. Therefore, only those PBPs with no or low affinity for ampicillin would be able to bind Boc-FL during the second incubation. The deacylation rate for the PBPs is actually extremely low, which permitted their detection in the gel for several hours after binding.
(§2) Figure 1 Complete set of PBPs identified with Boc-FL in whole cells of L. monocytogenes. Samples of whole cells (100 μg of total protein) were labeled with Boc-FL at concentrations of 0 (1), 0.5 (2), 1 (3), 2.5 (4), 5 (5), 10 (6), 50 μM (7) and 50 μM plus 100 μg/ml ampicillin (8). Labeled bands were detected directly on the gel, quantified, and their molecular mass estimated. The affinity of each band for Boc-FL (ID50) was estimated from their fluorescence as a function of the concentration of Boc-FL. The name of the PBP corresponding to each band is indicated on the right, while the positions of molecular weight markers (bars) and unspecific bands (arrowheads) are shown on the left.
(§3) Total whole cell proteins or purified recombinant protein resuspended in 50 mM NaPi buffer, pH 7.0 were labeled by incubation at 37°C for 30 min with different concentrations of Boc-FL (Molecular Probes), Boc-650 (Molecular Probes) or Amp-430 (prepared in the laboratory by coupling ampicillin to Alexa-430), and then separated on a 10% acrylamide, 3.3% cross-linkage SDS-PAGE gel. To avoid degradation of the fluorescent β-lactam antibiotics by β-lactamases, samples were incubated at 37°C with clavulanic acid at a final concentration of 10 μg/ml or EDTA at a final concentration of 10 mM for 30 min before labeling, where appropriate. Competition experiments were carried out by preincubation of the samples with ampicillin (100 μg/ml) for 30 min at 37°C, before adding the fluorescent antibiotic. […] PBPs were visualized directly on the polyacryloamide gel by fluorescence using a Typhoon 9410 imager (Amersham Biosciences) with excitation wavelengths of 588, 633 or 457 nm and emission filters 520BP40, 670BP30 or 555BP20 for Boc-FL, Boc-650 and Amp-430, respectively.

The target in assay [3] is T3, PBPA1 (PBP1) (Listeria monocytogenes, UniProt Q8Y610). The experiment in a line: Fluorescent antibiotic binding assay, whole cells. The conditions noted are these: read-out: Boc-FL Kd50, 30 min at 37°C, estimated from band fluorescence as a function of Boc-FL concentration. The procedure:
as §1, §2, §3

Assay [4] concerns the target T4, PBPB1 (PBP3) (Listeria monocytogenes, UniProt Q8Y763). In words: Fluorescent antibiotic binding assay, whole cells. The following applies: read-out: Boc-FL Kd50, 30 min at 37°C, estimated from band fluorescence as a function of Boc-FL concentration. The procedure:
as §1, §2, §3

Assay [5] has as its target T5, PBPB2 (PBP2) (Listeria monocytogenes, UniProt Q8Y5L8). In words: Fluorescent antibiotic binding assay, whole cells. The conditions noted are these: read-out: Boc-FL Kd50, 30 min at 37°C, estimated from band fluorescence as a function of Boc-FL concentration. The procedure:
as §1, §2, §3

Assay [6] concerns the target T6, PBPD1 (PBP5) (Listeria monocytogenes, UniProt Q8Y3S7). The experiment in a line: Fluorescent antibiotic binding assay, whole cells. The following applies: read-out: Boc-FL Kd50, 30 min at 37°C, estimated from band fluorescence as a function of Boc-FL concentration. The procedure:
as §1, §2, §3

Assay [7] has as its system L. monocytogenes AD07 (Δlmo2812 Δlmo2754). The experiment in a line: Microdilution MIC test. It is filed as cell-based, Listeria monocytogenes. The conditions noted are these: Listeria monocytogenes. The procedure: (§4) To determine the effect of these mutations on cell morphology, the strains EGD, KD2812 and DA07 were analyzed by scanning electron microscopy (SEM). […] At 30°C the average cell length compared to strain EGD was increased by 38.5% in strain KD2812 and by 44.8% in the double mutant strain. The respective values at 37°C were 37.5% and 43%. […] The variant cells were characteristically curved with a bend at either one or both ends and subterminal constrictions. The number of cells with altered morphology was increased as the growth temperature was raised (Figure 3; b, e, h). Cell bending was more pronounced in the population of AD07 mutant cells (Figure 3; c, f, i). […] Similar results were found for a mutant of L. monocytogenes lacking PBP5 (PBPD1) examined in a previous study.
(§5) Microdilution tests were performed using cation-adjusted Mueller-Hinton broth (CAMHB) supplemented with 5% lysed horse blood containing two-fold dilutions of the antimicrobial agents. These mixtures were dispensed in 100 μl aliquots into plastic 96-well plates. To prepare inocula, a single colony of each strain from a TSBYE plate was transferred into 10 ml of the same medium and incubated for 24 h at 37°C. These cultures were serially diluted in CAMHB to a concentration of 10^5 cfu/ml and 100 μl aliquots were added to the microdilution plates. The plates were incubated for 18-20 h at 37°C before the reading of the MIC endpoints. The MIC was the lowest antibiotic concentration at which visible growth was inhibited.
For orientation: In broth dilution the organism is exposed to a series of concentrations in liquid medium.

The subject of assay [8] is L. monocytogenes KD2812 (Δlmo2812). In words: Microdilution MIC test. Type of assay: cell-based, Listeria monocytogenes. The conditions noted are these: Listeria monocytogenes. The procedure: as §4, §5
The test system of assay [9] is L. monocytogenes EGD. In words: Microdilution MIC test. The following applies: Listeria monocytogenes. It is filed as cell-based, Listeria monocytogenes. The procedure:
as §4, §5

The target in assay [10] is T2, PBPA2 (PBP4). The experiment in a line: Competition binding assay (ampicillin preincubation, then Boc-FL), whole cells. The procedure: as §1, §2
(§6) Total whole cell proteins or purified recombinant protein resuspended in 50 mM NaPi buffer, pH 7.0 were labeled by incubation at 37°C for 30 min with different concentrations of Boc-FL (Molecular Probes), Boc-650 (Molecular Probes) or Amp-430 (prepared in the laboratory by coupling ampicillin to Alexa-430), and then separated on a 10% acrylamide, 3.3% cross-linkage SDS-PAGE gel. To avoid degradation of the fluorescent β-lactam antibiotics by β-lactamases, samples were incubated at 37°C with clavulanic acid at a final concentration of 10 μg/ml or EDTA at a final concentration of 10 mM for 30 min before labeling, where appropriate. Competition experiments were carried out by preincubation of the samples with ampicillin (100 μg/ml) for 30 min at 37°C, before adding the fluorescent antibiotic. The samples were then further incubated for 30 min at 37°C. PBPs were visualized directly on the polyacryloamide gel by fluorescence using a Typhoon 9410 imager (Amersham Biosciences) with excitation wavelengths of 588, 633 or 457 nm and emission filters 520BP40, 670BP30 or 555BP20 for Boc-FL, Boc-650 and Amp-430, respectively.

In assay [11] the target is PBPC1 (Listeria monocytogenes, UniProt Q8Y9I8). The description is as above. The procedure: as §1, §2, §6
Sequence of PBPC1 (Q8Y9I8 entry or part of it): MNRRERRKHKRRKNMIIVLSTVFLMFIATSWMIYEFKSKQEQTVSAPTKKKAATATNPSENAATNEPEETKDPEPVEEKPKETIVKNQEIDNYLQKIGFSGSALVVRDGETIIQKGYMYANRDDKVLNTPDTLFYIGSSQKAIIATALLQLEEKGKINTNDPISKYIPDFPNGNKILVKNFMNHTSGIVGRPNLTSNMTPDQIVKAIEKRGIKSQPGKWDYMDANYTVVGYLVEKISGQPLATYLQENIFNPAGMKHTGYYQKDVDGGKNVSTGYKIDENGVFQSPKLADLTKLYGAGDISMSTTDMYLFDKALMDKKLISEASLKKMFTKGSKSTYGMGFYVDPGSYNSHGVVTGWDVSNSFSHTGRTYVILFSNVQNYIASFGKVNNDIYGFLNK
Assay [12] addresses T3, PBPA1 (PBP1). The assay is described as above. The procedure:
as §1, §2, §6

Assay [13] deals with PBPC2 (Listeria monocytogenes, UniProt Q8Y5Y7). The description is as above. The procedure: as §1, §2, §6
Assay [14] addresses T4, PBPB1 (PBP3). The description is as above. The procedure:
as §1, §2, §6

Assay [15] deals with T5, PBPB2 (PBP2). The assay is described as above. The procedure: as §1, §2, §6
Assay [16] addresses T6, PBPD1 (PBP5). The description is as above. The procedure: as §1, §2, §6
Assay [17] concerns the target PBPB3 (Listeria monocytogenes, UniProt Q8Y9T2). The assay is described as above. The procedure: as §1, §2, §6
Assay [18] has as its target T1, purified recombinant Lmo2812 (PBPD2). The experiment in a line: Competition binding assay (ampicillin preincubation, then Boc-FL), purified recombinant protein. The following applies: purified recombinant Lmo2812 preincubated with 100 μg/ml ampicillin. The procedure:
as §6

Where [19] appears, read: ampicillin 100 μg/ml, 50 μM Boc-FL, Figure 1 lane 8 vs lane 7.
[20] abbreviates: preincubated with 100 μg/ml ampicillin, then 50 μM Boc-FL.

Structures are written as SMILES. pKd: −log10 of the molar value. Values after ≈ are worked out from the molar mass of the structure shown. Marks after values point to notes of the source that are not given here.

T3 sequence (Q8Y610 entry or part of it): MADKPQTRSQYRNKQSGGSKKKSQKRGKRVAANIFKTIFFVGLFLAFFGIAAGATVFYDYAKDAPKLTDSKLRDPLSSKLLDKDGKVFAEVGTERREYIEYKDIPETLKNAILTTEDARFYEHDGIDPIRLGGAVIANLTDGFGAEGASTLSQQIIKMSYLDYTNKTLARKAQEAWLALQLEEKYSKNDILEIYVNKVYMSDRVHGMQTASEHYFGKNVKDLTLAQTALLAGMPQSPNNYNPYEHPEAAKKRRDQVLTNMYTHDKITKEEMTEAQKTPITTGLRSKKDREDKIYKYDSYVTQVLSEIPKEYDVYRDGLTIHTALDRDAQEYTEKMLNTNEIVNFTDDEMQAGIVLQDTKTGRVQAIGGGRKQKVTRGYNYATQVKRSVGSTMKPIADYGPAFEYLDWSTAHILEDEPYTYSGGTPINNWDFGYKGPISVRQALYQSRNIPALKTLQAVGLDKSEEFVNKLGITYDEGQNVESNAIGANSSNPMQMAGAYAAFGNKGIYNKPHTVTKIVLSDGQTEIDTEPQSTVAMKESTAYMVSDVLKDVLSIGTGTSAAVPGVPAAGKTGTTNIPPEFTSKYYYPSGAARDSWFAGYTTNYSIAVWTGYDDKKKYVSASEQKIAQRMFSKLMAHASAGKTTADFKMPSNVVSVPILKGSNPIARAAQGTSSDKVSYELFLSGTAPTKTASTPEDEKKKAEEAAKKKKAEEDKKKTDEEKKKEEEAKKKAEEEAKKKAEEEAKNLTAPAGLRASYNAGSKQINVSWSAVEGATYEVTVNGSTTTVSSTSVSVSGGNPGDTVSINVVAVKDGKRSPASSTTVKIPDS
T4 sequence (Q8Y763 entry or part of it): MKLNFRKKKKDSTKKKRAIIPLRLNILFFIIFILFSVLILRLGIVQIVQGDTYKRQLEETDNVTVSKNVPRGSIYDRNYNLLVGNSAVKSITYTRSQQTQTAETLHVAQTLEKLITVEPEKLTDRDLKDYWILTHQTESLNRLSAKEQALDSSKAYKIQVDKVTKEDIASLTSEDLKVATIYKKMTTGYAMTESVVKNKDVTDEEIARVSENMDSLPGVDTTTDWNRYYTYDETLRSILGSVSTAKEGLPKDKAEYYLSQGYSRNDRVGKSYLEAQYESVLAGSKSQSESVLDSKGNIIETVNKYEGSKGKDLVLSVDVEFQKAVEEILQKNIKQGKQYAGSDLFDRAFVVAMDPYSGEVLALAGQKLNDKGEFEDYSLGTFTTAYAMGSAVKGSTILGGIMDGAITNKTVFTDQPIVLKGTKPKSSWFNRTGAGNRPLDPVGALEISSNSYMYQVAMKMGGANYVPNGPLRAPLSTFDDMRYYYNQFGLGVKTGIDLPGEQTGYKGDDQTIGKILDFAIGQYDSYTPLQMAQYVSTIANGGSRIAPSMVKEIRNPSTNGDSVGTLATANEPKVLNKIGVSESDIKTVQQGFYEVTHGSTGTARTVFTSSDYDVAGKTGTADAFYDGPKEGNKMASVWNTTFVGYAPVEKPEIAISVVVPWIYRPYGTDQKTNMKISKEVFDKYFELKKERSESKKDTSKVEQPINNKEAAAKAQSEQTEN
T5 sequence (Q8Y5L8 entry or part of it): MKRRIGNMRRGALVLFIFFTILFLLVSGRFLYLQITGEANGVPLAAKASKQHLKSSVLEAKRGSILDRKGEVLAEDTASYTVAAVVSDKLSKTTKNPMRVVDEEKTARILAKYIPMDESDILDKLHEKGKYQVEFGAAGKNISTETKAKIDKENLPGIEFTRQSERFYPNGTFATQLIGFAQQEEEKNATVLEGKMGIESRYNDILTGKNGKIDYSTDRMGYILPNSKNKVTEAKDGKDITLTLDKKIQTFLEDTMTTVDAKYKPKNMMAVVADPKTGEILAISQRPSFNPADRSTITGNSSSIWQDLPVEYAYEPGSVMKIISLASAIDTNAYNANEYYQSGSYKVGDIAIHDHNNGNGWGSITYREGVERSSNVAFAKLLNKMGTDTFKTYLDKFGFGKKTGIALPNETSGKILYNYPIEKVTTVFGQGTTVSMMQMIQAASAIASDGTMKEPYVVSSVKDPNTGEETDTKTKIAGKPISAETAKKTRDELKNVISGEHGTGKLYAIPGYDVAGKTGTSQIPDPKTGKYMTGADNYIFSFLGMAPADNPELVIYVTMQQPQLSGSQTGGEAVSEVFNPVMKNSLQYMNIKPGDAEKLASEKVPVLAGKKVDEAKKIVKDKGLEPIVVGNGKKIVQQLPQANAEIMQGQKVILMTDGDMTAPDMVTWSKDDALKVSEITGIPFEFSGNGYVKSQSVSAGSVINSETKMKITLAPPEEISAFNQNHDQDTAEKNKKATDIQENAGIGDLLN
T2 sequence (Q8Y547 entry or part of it): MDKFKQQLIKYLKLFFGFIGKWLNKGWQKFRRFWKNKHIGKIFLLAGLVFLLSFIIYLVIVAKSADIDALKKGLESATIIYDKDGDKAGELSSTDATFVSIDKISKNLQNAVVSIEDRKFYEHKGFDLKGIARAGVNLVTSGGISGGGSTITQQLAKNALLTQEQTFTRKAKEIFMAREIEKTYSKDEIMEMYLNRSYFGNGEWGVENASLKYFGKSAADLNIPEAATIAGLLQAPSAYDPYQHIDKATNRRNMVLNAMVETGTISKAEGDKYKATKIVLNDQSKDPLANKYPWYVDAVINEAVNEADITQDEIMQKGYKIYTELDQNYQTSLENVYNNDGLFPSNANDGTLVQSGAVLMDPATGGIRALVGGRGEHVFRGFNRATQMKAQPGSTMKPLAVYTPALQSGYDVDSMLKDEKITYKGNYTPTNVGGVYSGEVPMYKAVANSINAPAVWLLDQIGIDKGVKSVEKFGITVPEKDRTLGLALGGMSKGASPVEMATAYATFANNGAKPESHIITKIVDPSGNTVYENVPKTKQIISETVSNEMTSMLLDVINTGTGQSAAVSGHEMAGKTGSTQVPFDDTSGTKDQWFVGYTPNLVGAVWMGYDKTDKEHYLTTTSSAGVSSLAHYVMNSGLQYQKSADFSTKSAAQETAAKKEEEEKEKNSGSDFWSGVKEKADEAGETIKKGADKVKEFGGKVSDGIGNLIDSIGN
T6 sequence (Q8Y3S7 entry or part of it): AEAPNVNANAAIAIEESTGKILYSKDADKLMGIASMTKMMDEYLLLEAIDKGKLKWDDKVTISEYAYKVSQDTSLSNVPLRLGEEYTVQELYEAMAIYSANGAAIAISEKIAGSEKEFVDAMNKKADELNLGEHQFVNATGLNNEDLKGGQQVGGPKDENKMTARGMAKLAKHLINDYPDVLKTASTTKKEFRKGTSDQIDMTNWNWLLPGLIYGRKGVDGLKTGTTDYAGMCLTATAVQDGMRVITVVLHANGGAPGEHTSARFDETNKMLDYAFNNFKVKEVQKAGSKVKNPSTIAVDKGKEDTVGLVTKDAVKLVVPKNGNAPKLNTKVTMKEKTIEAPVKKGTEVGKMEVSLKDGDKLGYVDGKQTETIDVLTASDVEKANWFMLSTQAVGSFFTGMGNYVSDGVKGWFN
T1 sequence (Q8Y3M3 entry or part of it): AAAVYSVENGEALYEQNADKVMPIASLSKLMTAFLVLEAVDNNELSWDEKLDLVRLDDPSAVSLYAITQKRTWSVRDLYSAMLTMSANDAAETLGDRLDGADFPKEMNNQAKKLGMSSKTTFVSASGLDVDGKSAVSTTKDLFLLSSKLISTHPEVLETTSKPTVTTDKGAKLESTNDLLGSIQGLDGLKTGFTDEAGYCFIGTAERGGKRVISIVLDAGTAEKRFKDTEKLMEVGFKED
Sequence of PBPB3 (Q8Y9T2 entry or part of it): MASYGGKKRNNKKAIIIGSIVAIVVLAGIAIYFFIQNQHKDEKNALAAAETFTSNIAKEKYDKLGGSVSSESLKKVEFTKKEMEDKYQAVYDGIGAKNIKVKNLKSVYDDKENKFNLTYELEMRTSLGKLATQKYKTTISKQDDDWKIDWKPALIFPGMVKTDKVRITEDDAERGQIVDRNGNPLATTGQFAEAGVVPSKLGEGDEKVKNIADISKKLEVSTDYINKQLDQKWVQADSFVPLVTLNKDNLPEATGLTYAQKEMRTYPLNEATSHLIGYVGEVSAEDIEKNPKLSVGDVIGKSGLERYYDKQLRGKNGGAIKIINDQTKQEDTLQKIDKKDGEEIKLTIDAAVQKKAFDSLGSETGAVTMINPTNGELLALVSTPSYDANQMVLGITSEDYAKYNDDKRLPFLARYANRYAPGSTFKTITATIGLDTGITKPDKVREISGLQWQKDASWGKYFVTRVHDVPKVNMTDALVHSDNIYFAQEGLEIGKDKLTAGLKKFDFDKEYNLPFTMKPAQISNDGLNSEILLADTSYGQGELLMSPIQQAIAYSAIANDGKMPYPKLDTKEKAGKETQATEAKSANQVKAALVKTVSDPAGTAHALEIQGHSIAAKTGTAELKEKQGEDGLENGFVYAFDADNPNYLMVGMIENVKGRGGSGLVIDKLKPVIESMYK

Regarding `Cc1cc(C)n2c1C=C1C=CC(CCC(=O)Nc3ccc(OCC(=O)N[C@@H]4C(=O)N5[C@@H]4SC(C)(C)[C@@H]5C(=O)O)cc3)=[N+]1[B-]2(F)F` [Boc-FL, Bocillin-FL], the pKd is 5.60 in [1]; 6.60 in assay [2]; less than 5.00 in assay [3]; 6.60 in assay [4]; 6.60 in assay [5]; 5.30 in assay [6].
In the case of `CC1(C)S[C@@H]2[C@H](NC(=O)[C@H](N)c3ccccc3)C(=O)N2[C@H]1C(=O)O` [ampicillin], the MIC in [7] is 0.16 µg/mL (≈ 0.458 µM); in assay [8], 0.31 µg/mL (≈ 0.887 µM); in [9] it was 0.31 µg/mL (≈ 0.887 µM). The “binding of ampicillin (disappearance of Boc-FL band)” value is listed as “partial” in assay [10] (setting [19]); “no binding” in assay [11] (setting [19]); “partial” in assay [12] (setting [19]); “no binding” in [13] (setting [19]); “total” in [14] (setting [19]); “partial” in assay [15] (setting [19]). Also, the results for the “binding of ampicillin (disappearance of Boc-FL band)” value in assay [16] (setting [19]) and in assay [17] (setting [19]) were “total” and “partial”, respectively. Besides, the “percentage of Boc-FL binding capacity remaining” value in assay [10] (setting [20]) worked out at 90%; in assay [11] (setting [20]) it was 100%; in assay [12] (setting [20]) it was 95%; in [13] (setting [20]) it was 100%; in assay [14] (setting [20]) it was 0%; in [15] (setting [20]), 90%. Besides, the entries for the “percentage of Boc-FL binding capacity remaining” value in assay [16] (setting [20]), in [17] (setting [20]) and in assay [18] were 0%, 95% and 0^b %, respectively. Moreover, the “inhibition of Boc-FL binding” value in [14] (Amp at 100 μg/ml) and in assay [16] (Amp at 100 μg/ml) was “completely inhibited” throughout.

For orientation: MIC means the lowest concentration found to suppress growth. Read a high MIC as a need for much substance.
